What is called IC50 is the concentration that gives 50% inhibition. A high value points to lower potency.

This note sets out measurements from ChEMBL document CHEMBL5465560, “Selectivity Literature for EUbOPEN Chemogenomic Library” (2024).

For experiment [1], the target named is T1, Mitogen-activated protein kinase 15 (Homo sapiens) (UniProt Q8TD08).
T1 sequence (whole entry): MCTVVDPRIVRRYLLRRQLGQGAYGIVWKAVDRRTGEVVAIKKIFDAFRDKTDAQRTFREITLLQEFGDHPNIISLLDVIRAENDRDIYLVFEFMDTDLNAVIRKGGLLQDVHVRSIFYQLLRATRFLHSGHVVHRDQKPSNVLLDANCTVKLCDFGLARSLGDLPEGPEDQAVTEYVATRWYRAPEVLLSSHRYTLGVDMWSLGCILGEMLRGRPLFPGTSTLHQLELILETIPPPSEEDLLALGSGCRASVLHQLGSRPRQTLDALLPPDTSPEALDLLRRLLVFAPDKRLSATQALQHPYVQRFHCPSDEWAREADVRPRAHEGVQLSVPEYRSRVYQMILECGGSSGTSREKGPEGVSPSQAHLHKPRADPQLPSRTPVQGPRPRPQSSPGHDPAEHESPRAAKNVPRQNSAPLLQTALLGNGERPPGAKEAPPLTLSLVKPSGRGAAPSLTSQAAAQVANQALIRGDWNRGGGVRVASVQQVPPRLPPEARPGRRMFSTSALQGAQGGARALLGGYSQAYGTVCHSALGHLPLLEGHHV
The experiment can be described thus: Selectivity interaction (LanthaScreen Eu Kinase Binding Assay) EUB0001632a MAPK15. The note with it: at 10 µM. For orientation: In TR-FRET formats the signal depends on donor and acceptor labels being close together.

Experiment [2] concerns the target Mitogen-activated protein kinase 11 (Homo sapiens) (UniProt Q15759). Briefly: Selectivity interaction (SelectScreen profiling (Invitrogen)) EUB0000607a MAPK11. The note with it: at 2 µM.
The target in experiment [3] is Casein kinase I isoform gamma-3 (Homo sapiens) (UniProt Q9Y6M4). The note with it: at 10 µM.
The target of experiment [4] is Receptor tyrosine-protein kinase erbB-2 (Homo sapiens, UniProt P04626). The experiment can be described thus: Selectivity interaction (Radiometric kinase assay (using 10 uM ATP)) EUB0000601a ERBB2.
The target of experiment [5] is Serine/threonine-protein kinase PAK 2 (Homo sapiens) (UniProt Q13177). The experiment can be described thus: Selectivity interaction (KinomeScan (DiscoverX)) EUB0000045b PAK2.
Experiment [6] deals with Mitogen-activated protein kinase kinase kinase 21 (Homo sapiens) (UniProt Q5TCX8). The experiment can be described thus: Selectivity interaction (ProQinase) EUB0000171b MAP3K21.
Experiment [7] deals with T2, Dual specificity mitogen-activated protein kinase kinase 3 (Homo sapiens) (UniProt P46734).
T2 sequence (whole entry): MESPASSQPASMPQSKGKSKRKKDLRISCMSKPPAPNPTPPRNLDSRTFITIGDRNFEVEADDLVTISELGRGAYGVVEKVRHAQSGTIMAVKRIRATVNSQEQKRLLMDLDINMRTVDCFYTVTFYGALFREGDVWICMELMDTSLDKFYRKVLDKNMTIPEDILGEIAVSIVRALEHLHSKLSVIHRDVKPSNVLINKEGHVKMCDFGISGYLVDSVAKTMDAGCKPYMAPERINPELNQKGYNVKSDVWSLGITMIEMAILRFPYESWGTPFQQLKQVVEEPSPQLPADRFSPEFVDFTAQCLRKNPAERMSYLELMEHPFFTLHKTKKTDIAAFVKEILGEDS
Briefly: Selectivity interaction (Ambit KINOMEscan and KiNATiv profiling in Jurkat cells) EUB0000090b MAP2K3. The experiment is classed as cell-based. The note with it: at 1 µM.

Experiment [8] concerns the target T3, Serine/threonine-protein kinase Sgk2 (Homo sapiens) (UniProt Q9HBY8).
T3 sequence (whole entry): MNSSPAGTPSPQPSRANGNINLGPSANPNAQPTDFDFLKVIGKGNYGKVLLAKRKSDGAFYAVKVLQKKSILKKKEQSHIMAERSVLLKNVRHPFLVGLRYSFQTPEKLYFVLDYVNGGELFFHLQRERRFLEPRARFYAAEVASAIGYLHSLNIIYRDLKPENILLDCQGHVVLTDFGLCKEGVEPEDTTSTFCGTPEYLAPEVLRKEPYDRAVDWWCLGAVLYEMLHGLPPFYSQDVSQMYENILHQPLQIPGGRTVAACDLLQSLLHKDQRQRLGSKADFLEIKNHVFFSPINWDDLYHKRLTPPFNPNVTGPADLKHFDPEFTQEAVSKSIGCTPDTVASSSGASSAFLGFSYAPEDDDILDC
Briefly: Selectivity interaction (Ambit KINOMEscan and KiNATiv profiling in Jurkat cells) EUB0000090b SGK2. In kind it is cell-based. The settings on record: at 1 µM.

Experiment [9] has as its target T4, Inhibitor of nuclear factor kappa-B kinase subunit alpha (Homo sapiens) (UniProt O15111).
T4 sequence (whole entry): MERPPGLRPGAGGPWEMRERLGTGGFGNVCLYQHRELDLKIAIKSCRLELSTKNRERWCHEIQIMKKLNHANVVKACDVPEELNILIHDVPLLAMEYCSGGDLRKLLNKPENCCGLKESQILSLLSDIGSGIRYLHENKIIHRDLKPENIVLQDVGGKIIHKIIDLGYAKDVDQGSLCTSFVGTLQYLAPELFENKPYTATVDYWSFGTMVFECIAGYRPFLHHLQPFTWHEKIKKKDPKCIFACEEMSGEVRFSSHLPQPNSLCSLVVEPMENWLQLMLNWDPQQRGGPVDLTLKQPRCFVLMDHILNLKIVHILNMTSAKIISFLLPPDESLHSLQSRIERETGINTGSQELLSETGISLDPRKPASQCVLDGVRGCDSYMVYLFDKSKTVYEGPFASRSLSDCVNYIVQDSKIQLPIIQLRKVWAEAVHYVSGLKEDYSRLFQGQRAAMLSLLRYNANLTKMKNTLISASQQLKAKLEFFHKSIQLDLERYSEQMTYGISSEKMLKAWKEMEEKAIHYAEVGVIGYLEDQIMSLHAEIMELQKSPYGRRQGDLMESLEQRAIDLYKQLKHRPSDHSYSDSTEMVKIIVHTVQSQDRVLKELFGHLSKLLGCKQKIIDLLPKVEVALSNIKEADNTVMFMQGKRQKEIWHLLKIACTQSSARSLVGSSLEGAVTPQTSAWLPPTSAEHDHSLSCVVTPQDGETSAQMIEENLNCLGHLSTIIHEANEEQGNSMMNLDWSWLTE
Briefly: Selectivity interaction (KinomeScan (DiscoverX)) EUB0001049a CHUK. The settings on record: at 1 µM.

The target of experiment [10] is D(2) dopamine receptor (Homo sapiens, UniProt P14416). Briefly: Selectivity interaction (Panel of kinases, GPCRs, ion channels and transporters (enzymatic assay)) EUB0000223bCl DRD2.
Experiment [11] deals with Casein kinase I isoform alpha (Homo sapiens, UniProt P48729). The experiment can be described thus: Selectivity interaction (KinomeScan (DiscoverX)) EUB0000618a CSNK1A1. The settings on record: at 10 µM.
Experiment [12] concerns the target Mitogen-activated protein kinase kinase kinase 21 (Homo sapiens) (UniProt Q5TCX8). Briefly: Selectivity interaction (Kinase panel (KiNativ target engagement assay in Jurkat cells)) EUB0001635a MAP3K21. The experiment is classed as cell-based. The note with it: Selectivity number of off-targets 0.0, Selectivity number of targets 233.0, Source Knowledge https://www.sciencedirect.com/science/article/pii/S2451945619300674?via%3Dihub, at 1 µM.

Mitogen-activated protein kinase kinase kinase 21 (Homo sapiens), sequence (Q5TCX8 whole entry): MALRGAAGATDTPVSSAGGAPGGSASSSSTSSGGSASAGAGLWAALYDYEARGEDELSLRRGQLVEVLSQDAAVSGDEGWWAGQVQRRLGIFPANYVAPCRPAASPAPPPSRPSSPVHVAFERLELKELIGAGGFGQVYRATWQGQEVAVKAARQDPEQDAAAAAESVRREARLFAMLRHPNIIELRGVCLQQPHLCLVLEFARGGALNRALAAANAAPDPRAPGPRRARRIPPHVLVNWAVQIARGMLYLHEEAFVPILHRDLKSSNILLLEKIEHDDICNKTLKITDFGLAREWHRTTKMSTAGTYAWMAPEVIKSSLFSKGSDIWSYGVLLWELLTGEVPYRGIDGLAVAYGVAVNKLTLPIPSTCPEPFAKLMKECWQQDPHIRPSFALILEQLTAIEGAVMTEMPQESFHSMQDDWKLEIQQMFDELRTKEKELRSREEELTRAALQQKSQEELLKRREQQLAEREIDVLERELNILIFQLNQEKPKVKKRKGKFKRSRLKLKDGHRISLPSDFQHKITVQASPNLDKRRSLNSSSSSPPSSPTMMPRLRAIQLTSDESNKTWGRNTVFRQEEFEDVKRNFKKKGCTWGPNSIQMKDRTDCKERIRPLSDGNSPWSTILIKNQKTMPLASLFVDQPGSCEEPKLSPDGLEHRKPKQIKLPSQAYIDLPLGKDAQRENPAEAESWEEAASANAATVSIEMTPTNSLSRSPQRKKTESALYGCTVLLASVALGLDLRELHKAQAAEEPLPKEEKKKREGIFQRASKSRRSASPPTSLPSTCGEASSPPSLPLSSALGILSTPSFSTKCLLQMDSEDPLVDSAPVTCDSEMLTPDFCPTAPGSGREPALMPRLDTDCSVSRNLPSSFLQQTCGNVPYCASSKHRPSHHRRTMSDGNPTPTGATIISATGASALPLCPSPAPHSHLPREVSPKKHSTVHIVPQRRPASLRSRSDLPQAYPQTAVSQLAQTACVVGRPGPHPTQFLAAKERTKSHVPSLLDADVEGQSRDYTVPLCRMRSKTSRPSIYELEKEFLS
Serine/threonine-protein kinase PAK 2 (Homo sapiens), sequence (Q13177 whole entry): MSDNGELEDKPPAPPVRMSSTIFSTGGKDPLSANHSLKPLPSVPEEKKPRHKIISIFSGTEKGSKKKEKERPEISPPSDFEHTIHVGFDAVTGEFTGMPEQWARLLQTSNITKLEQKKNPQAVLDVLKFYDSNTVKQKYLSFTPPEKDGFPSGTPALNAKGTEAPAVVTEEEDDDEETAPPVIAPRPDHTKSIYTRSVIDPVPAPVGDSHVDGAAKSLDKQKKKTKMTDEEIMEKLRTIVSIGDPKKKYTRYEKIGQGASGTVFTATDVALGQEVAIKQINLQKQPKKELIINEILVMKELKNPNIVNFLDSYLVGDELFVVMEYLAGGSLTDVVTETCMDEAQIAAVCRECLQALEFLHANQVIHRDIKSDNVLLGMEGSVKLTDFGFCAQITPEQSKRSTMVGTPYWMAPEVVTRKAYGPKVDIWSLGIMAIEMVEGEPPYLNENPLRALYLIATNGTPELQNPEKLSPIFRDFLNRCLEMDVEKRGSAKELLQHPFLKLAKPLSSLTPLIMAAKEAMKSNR
Casein kinase I isoform gamma-3 (Homo sapiens), sequence (Q9Y6M4 whole entry, looked up, canonical isoform): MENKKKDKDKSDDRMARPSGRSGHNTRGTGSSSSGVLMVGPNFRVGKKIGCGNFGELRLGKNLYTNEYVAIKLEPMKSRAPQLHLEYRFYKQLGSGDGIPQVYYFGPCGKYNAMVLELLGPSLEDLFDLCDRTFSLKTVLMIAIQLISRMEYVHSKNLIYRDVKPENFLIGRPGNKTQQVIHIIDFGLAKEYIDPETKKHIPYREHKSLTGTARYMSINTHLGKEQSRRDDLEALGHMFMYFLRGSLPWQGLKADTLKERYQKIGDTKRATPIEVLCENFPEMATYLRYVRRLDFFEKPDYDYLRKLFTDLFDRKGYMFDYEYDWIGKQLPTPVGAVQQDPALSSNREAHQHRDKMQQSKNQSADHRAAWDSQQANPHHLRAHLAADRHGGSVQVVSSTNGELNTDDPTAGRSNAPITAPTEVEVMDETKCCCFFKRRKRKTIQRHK
Mitogen-activated protein kinase 11 (Homo sapiens), sequence (Q15759 whole entry, canonical isoform): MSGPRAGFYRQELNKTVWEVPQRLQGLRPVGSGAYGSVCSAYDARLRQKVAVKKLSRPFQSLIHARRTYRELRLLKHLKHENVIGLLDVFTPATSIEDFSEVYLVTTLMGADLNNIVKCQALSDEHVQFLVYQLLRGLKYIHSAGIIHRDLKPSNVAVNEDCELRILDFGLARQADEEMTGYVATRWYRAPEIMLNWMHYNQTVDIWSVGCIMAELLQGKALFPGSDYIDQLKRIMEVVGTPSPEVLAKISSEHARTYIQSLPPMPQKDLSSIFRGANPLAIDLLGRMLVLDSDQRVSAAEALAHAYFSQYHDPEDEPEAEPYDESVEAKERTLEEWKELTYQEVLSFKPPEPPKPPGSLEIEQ
Casein kinase I isoform alpha, sequence (P48729 2-337 limits assumed): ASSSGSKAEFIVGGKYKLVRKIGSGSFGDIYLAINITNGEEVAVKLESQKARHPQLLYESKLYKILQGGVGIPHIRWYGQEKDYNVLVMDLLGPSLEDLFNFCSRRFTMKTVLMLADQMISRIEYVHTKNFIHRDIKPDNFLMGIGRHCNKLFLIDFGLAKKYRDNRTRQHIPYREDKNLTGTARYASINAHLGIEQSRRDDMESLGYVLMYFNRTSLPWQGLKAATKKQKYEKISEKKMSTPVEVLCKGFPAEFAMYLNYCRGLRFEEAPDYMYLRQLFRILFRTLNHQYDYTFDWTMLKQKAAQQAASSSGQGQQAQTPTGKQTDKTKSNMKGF
D(2) dopamine receptor, sequence (P14416 whole entry, canonical isoform): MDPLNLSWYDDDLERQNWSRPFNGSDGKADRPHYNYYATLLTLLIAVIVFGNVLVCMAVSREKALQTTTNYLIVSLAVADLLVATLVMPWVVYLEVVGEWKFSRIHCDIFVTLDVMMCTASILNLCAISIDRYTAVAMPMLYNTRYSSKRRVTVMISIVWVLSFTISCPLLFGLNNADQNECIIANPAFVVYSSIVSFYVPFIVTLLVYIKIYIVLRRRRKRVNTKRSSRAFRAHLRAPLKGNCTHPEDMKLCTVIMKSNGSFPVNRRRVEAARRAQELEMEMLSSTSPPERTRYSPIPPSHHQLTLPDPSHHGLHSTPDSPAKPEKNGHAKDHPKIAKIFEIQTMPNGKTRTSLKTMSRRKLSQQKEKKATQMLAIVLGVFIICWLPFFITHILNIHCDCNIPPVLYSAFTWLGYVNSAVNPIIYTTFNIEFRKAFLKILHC
Receptor tyrosine-protein kinase erbB-2, sequence (P04626 whole entry): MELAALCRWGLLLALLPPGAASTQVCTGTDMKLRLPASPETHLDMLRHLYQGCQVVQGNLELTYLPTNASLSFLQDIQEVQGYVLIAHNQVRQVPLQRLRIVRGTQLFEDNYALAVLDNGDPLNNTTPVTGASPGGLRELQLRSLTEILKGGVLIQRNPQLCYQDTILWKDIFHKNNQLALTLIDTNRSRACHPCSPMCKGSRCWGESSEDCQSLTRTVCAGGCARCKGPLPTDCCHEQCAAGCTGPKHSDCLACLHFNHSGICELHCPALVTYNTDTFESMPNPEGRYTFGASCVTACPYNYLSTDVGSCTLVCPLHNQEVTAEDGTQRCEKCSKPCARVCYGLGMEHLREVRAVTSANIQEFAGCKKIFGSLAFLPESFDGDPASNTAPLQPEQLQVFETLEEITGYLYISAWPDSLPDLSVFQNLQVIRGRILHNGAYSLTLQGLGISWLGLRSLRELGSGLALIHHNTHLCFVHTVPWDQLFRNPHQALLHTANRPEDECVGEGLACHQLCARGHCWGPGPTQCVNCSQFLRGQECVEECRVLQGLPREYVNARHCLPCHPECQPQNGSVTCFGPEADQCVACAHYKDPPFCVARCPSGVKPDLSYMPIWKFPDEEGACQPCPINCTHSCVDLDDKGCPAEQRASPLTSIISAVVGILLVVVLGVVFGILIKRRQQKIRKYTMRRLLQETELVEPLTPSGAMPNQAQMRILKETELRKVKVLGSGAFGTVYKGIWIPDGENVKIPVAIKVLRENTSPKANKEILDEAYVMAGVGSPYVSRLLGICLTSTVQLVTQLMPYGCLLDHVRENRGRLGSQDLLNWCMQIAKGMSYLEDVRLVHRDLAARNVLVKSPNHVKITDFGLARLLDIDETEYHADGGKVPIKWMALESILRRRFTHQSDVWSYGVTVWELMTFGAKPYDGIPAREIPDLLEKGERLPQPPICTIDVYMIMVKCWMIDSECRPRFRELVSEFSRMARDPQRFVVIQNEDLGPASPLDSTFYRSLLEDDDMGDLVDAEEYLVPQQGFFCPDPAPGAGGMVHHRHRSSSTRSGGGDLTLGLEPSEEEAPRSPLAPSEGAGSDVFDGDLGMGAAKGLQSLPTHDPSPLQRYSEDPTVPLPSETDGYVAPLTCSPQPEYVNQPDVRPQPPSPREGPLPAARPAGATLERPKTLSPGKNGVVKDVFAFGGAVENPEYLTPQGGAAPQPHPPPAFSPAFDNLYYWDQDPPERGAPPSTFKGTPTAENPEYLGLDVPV

As to `Cn1cc(-n2cnc3c(NCc4nc5cc(Cl)c(Cl)cc5[nH]4)nc(N4CCOCC4)nc32)cn1`, the % of inhibition in experiment [1] was -42.8%.
Consider `CNC(=O)Nc1ccc(-c2nc(N3CC4CCC(C3)O4)c3cnn(C4CCC5(CC4)OCCO5)c3n2)cc1`, for which, in [2], the % of inhibition was 2%.
For the compound `Cc1cc([C@@H](C)Nc2ccccc2C(=O)O)c2nc(N3CCOCC3)cc(=O)n2c1` [AZD-6482], the % of control in experiment [3] was determined as 100%.
In the case of `CCc1cc(Nc2nccc(-c3c(-c4ccc(OC)c(C(=O)Nc5c(F)cccc5F)c4)nc4ccccn34)n2)c(OC)cc1N1CCC(N2CCN(S(C)(=O)=O)CC2)CC1`, the IC50 in experiment [4] was over 10 µM.
Regarding `C=CC(=O)Nc1cc(-n2c(=O)ccc3cnc4ccc(-c5ccc(NS(C)(=O)=O)cc5)cc4c32)ccc1C`, the % of control in experiment [5] (at 1 µM) amounted to 78%; in experiment [5] (at 10 µM), 92%.
For the compound `C=CC(=O)Nc1cccc(C(=O)Nc2ccc(Nc3cc(-c4[nH]c(SC)nc4C)ccn3)cc2)c1`, the values for the % of control in [6] (at 1 µM) and in [6] (at 5 µM) were 81% and 59%, respectively.
As for `CN(C)C/C=C/C(=O)Nc1ccc(C(=O)N2CCCC(Nc3ncc(Cl)c(-c4c[nH]c5ccccc45)n3)C2)cc1` (centres undefined), the % of control in [7] was 51%; in experiment [8] it was 100%.
Turning to `COc1cc(Nc2nc(C)cc(-c3cnn4nc(OC)ccc34)n2)cc(C(F)(F)F)c1`, in experiment [9], the % of control worked out at 95%.
On to `COc1cc(C(=O)N2CC[C@@H](O)[C@@H](N)C2)cc2nc(-c3cc4ccccc4n3CC3CC3)n(C)c12`, for which, in [10], the pXC50 was under 4 M.
On to `O[C@H]1CC[C@H](Nc2ncc3nc(Nc4c(F)cc(F)cc4F)n([C@H]4CCOC4)c3n2)CC1`, for which, in experiment [11], the % of control stood at 100%.
With `C=CC(=O)Nc1ccc(C(=O)Nc2[nH]nc3c2CN(C(=O)N[C@H](CN(C)C)c2ccccc2)C3(C)C)cc1`, the % of engagement in experiment [12] is -4.1%.
